Assay results taken from PubChem BioAssay AID192 (DTP/NCI, 2004).
“And” between values parts separate entries of the source, which are not always exact repeats. Equal entries are not always repeated. Inconclusive results and toxic doses are left out. How the source made its calls: active means survival T/C of 150% or more; inactive means T/C below 125% in these data. Square brackets hold non-standard residues; d marks the D form. Peptide text beside a SMILES is read from it. ξ: configuration not given here. ξLac(3-iPr) = CC(C)CC(O)C(=O)O; NMeV = CN[CH](C(=O)O)C(C)C; NMeA = CN[CH](C)C(=O)O; βAla = NCCC(=O)O

System: BDF1 mice, B16 melanoma ip, median survival T/C
Experiment: NCI In Vivo Anticancer Drug Screen. Data for tumor model B16 Melanoma (intraperitoneal) in B6D2F1 (BDF1) mice
Details: endpoint: median survival time, higher = longer survival
Method in brief: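 In this screen, activity was judged from survival or tumor size in treated versus vehicle-treated tumor-bearing mice, reported as T/C.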

[1] = dose: 100.0 mg/kg/injection, schedule: Q04DX003 (ip), vehicle: saline
[2] = dose: 1.25 mg/kg/injection, schedule: Q01DX009 (ip), vehicle: saline with Tween-80
[3] = dose: 2.5 mg/kg/injection, schedule: Q01DX009 (ip), vehicle: saline with Tween-80
[4] = dose: 100.0 mg/kg/injection, schedule: Q01DX009 (ip), vehicle: Klucel (hydroxypropylcellulose) (HPC)
[5] = dose: 200.0 mg/kg/injection, schedule: Q01DX009 (ip), vehicle: Klucel (hydroxypropylcellulose) (HPC)
[6] = dose: 400.0 mg/kg/injection, schedule: Q01DX009 (ip), vehicle: Klucel (hydroxypropylcellulose) (HPC)
[7] = dose: 100.0 mg/kg/injection, schedule: Q01DX009 (ip), vehicle: saline with Tween-80
[8] = dose: 200.0 mg/kg/injection, schedule: Q01DX009 (ip), vehicle: saline with Tween-80
[9] = dose: 400.0 mg/kg/injection, schedule: Q01DX009 (ip), vehicle: saline with Tween-80
[10] = dose: 6.25 mg/kg/injection, schedule: Q01DX009 (ip), vehicle: Klucel (hydroxypropylcellulose) (HPC)
[11] = dose: 25.0 mg/kg/injection, schedule: Q01DX009 (ip), vehicle: saline
[12] = dose: 50.0 mg/kg/injection, schedule: Q01DX009 (ip), vehicle: saline
[13] = dose: 100.0 mg/kg/injection, schedule: Q01DX009 (ip), vehicle: saline
[14] = dose: 50.0 mg/kg/injection, schedule: Q01DX009 (ip), vehicle: saline with Tween-80
[15] = dose: 12.5 mg/kg/injection, schedule: Q01DX009 (ip), vehicle: Klucel (hydroxypropylcellulose) (HPC)
[16] = dose: 25.0 mg/kg/injection, schedule: Q01DX009 (ip), vehicle: Klucel (hydroxypropylcellulose) (HPC)
[17] = dose: 50.0 mg/kg/injection, schedule: Q01DX009 (ip), vehicle: Klucel (hydroxypropylcellulose) (HPC)

Measured: T/C

Nc1cc(Cl)c2cccnc2c1O
inactive: dose: 22.0 mg/kg/injection, schedule: Q01DX009 (ip), vehicle: saline 115 % of control | dose: 33.0 mg/kg/injection, schedule: Q01DX009 (ip), vehicle: saline 120 % of control | dose: 44.0 mg/kg/injection, schedule: Q04DX003 (ip), vehicle: saline 106 % of control | dose: 66.0 mg/kg/injection, schedule: Q04DX003 (ip), vehicle: saline 106 % of control | [1] 86 % of control

Clc1nc(SC2=NCCN2)c2[nH]cnc2n1
inactive: [2] 93 % of control | [3] 97 % of control | dose: 5.0 mg/kg/injection, schedule: Q01DX009 (ip), vehicle: saline with Tween-80 101 % of control | dose: 10.0 mg/kg/injection, schedule: Q01DX009 (ip), vehicle: saline with Tween-80 101 % of control and 103 % of control

CC(=O)c1cccc(NC(=O)Nc2ccccc2)c1
inactive: [4] 96 % of control | [5] 91 % of control | [6] 96 % of control

CC1(C)[C@H]2CC[C@@]1(C)C(=O)[C@H]2[N+](=O)[O-]
inactive: [4] 114 % of control | [5] 111 % of control | [6] 108 % of control

CCc1cc(C)cc(OC(=O)Nc2ccc(Cl)cc2)c1
inactive: [7] 116 % of control | [8] 87 % of control | [9] 92 % of control

COC(=O)C(C)CN1CCCCCC1 (centres undefined)
inactive: dose: 50.0 mg/kg/injection, schedule: Q04DX003 (ip), vehicle: saline 108 % of control | [1] 102 % of control | dose: 200.0 mg/kg/injection, schedule: Q04DX003 (ip), vehicle: saline 100 % of control

Cc1cc(O)c(N=Nc2ccc(C(=O)O)cc2)cc1C
inactive: dose: 12.5 mg/kg/injection, schedule: Q01DX009 (ip), vehicle: suspension in saline 109 % of control | dose: 25.0 mg/kg/injection, schedule: Q01DX009 (ip), vehicle: suspension in saline 106 % of control | dose: 50.0 mg/kg/injection, schedule: Q01DX009 (ip), vehicle: suspension in saline 109 % of control | dose: 100.0 mg/kg/injection, schedule: Q01DX009 (ip), vehicle: suspension in saline 90 % of control | dose: 200.0 mg/kg/injection, schedule: Q01DX009 (ip), vehicle: suspension in saline 87 % of control

CC[CH2][Pb]([CH2]CC)([CH2]CC)[N]1C(=O)c2ccccc2C1=O
inactive: dose: 3.12 mg/kg/injection, schedule: Q01DX009 (ip), vehicle: Klucel (hydroxypropylcellulose) (HPC) 109 % of control | [10] 101 % of control

CCC(CC)(CO)CO
inactive: [11] 92 % of control | [12] 102 % of control | [13] 104 % of control | dose: 200.0 mg/kg/injection, schedule: Q01DX009 (ip), vehicle: saline 107 % of control | dose: 400.0 mg/kg/injection, schedule: Q01DX009 (ip), vehicle: saline 97 % of control

CCCCCC(CN(C)C)C(O)/C=C/c1ccccc1Cl (centres undefined)
inactive: dose: 6.0 mg/kg/injection, schedule: Q01DX009 (ip), vehicle: saline 96 % of control | dose: 12.0 mg/kg/injection, schedule: Q01DX009 (ip), vehicle: saline 98 % of control | [11] 103 % of control

CC/C(C)=C(/C(=O)O)c1ccccc1
inactive: [7] 110 % of control | [8] 94 % of control

COC1/C=C/O[C@@]2(C)Oc3c(C)c(O)c4c(O)c(cc(O)c4c3C2=O)NC(=O)/C(C)=C\C=C\[C@H](C)C(O)[C@@H](C)[C@@H](O)[C@@H](C)[C@H](OC(C)=O)[C@@H]1C (some centres undefined)
inactive: [14] 89 % of control | [7] 100 % of control | [8] 95 % of control

CCC(C)C1NC(=O)C2CCCN2C(=O)C(CC(C)C)OC(=O)CCNC(=O)C(C)N(C)C(=O)C(C(C)C)N(C)C1=O (centres undefined) (cyclo([ξLac(3-iPr)]PI[NMeV][NMeA][βAla]); configuration not given here)
inactive: dose: 1.25 mg/kg/injection, schedule: Q01DX009 (ip), vehicle: saline 112 % of control | dose: 2.5 mg/kg/injection, schedule: Q01DX009 (ip), vehicle: saline 111 % of control | dose: 5.0 mg/kg/injection, schedule: Q01DX009 (ip), vehicle: saline 105 % of control | dose: 10.0 mg/kg/injection, schedule: Q01DX009 (ip), vehicle: saline 107 % of control

CC1(S)CCC2CC1C2(C)C (centres undefined)
inactive: [15] 94 % of control | [16] 94 % of control | [17] 89 % of control

C=CCNC(=S)Nc1cccc(Cl)c1C
inactive: dose: 12.5 mg/kg/injection, schedule: Q04DX003 (ip), vehicle: Klucel (hydroxypropylcellulose) (HPC) 93 % of control | dose: 25.0 mg/kg/injection, schedule: Q04DX003 (ip), vehicle: Klucel (hydroxypropylcellulose) (HPC) 100 % of control | dose: 50.0 mg/kg/injection, schedule: Q04DX003 (ip), vehicle: Klucel (hydroxypropylcellulose) (HPC) 100 % of control

Cc1ccc(N2CSC(=S)N(c3ccc(C)cc3)C2)cc1
inactive: [4] 86 % of control and 109 % of control | [5] 86 % of control and 109 % of control | [6] 102 % of control

CCN(C(=O)Nc1ccc(Cl)cc1)c1ccccc1C
inactive: [7] 97 % of control | [8] 102 % of control | [9] 97 % of control

CCCC(NC(=O)C(C)Br)C(=O)O (centres undefined)
inactive: [14] 101 % of control | [7] 87 % of control

CC(C)N(C(=O)c1ccccc1Cl)c1ccccc1
inactive: [16] 93 % of control | [4] 106 % of control

C(C#CCN1CCOCC1)#CCN1CCOCC1
inactive: dose: 12.5 mg/kg/injection, schedule: Q01DX009 (ip), vehicle: saline with Tween-80 102 % of control and 103 % of control | dose: 25.0 mg/kg/injection, schedule: Q01DX009 (ip), vehicle: saline with Tween-80 97 % of control | [14] 93 % of control and 96 % of control | [7] 90 % of control and 97 % of control (2×) | [8] 90 % of control and 97 % of control (2×) | [9] 90 % of control and 97 % of control and 107 % of control

CCC[CH2][Sn]([CH2]CCC)([CH2]CCC)[O]C(=O)CC[S][Sn]([CH2]CCC)([CH2]CCC)[CH2]CCC
inactive: dose: 1.0 mg/kg/injection, schedule: Q01DX009 (ip), vehicle: saline with Tween-80 92 % of control | dose: 2.0 mg/kg/injection, schedule: Q01DX009 (ip), vehicle: saline with Tween-80 95 % of control

CCN(CC)C(C)CN1c2ccccc2Sc2ccccc21 (centres undefined)
inactive: dose: 6.25 mg/kg/injection, schedule: Q01DX009 (ip), vehicle: saline 95 % of control | dose: 12.5 mg/kg/injection, schedule: Q01DX009 (ip), vehicle: saline 105 % of control | [11] 105 % of control | [12] 112 % of control | [13] 112 % of control

O=c1oc(-c2ccccc2Cl)nc2cc(Cl)ccc12
inactive: [16] 113 % of control | [17] 90 % of control

CC12CCC(O)CC1CCC1C2CCC2(C)C(c3ccc(=O)oc3)CCC12O (centres undefined)
inactive: dose: 0.31 mg/kg/injection, schedule: Q01DX009 (ip), vehicle: saline with Tween-80 98 % of control | dose: 0.62 mg/kg/injection, schedule: Q01DX009 (ip), vehicle: saline with Tween-80 94 % of control | [2] 99 % of control | [3] 99 % of control

CN1CCCN(C(c2ccccc2)c2ccc(Cl)cc2)CC1 (centres undefined)
inactive: dose: 1.95 mg/kg/injection, schedule: Q01DX009 (ip), vehicle: saline 92 % of control | dose: 3.9 mg/kg/injection, schedule: Q01DX009 (ip), vehicle: saline 105 % of control | dose: 7.81 mg/kg/injection, schedule: Q01DX009 (ip), vehicle: saline 105 % of control | dose: 15.62 mg/kg/injection, schedule: Q01DX009 (ip), vehicle: saline 97 % of control | dose: 31.25 mg/kg/injection, schedule: Q01DX009 (ip), vehicle: saline 94 % of control

NC1CCC(CCCC2CCCC2)CC1 (centres undefined)
inactive: [10] 96 % of control | [15] 86 % of control | [16] 89 % of control

O=C1OC(=O)C2C1C1C3C=CC3C1C21C=C1 (centres undefined)
inactive: [4] 87 % of control | [5] 87 % of control

CCOc1nsc(OCC)n1
inactive: dose: 12.5 mg/kg/injection, schedule: Q04DX003 (ip), vehicle: distilled water + Tween-80 103 % of control | dose: 25.0 mg/kg/injection, schedule: Q04DX003 (ip), vehicle: distilled water + Tween-80 96 % of control | dose: 50.0 mg/kg/injection, schedule: Q04DX003 (ip), vehicle: distilled water + Tween-80 99 % of control | dose: 100.0 mg/kg/injection, schedule: Q04DX003 (ip), vehicle: distilled water + Tween-80 98 % of control
